Active and inactive are the calls of the source.
Experiments:
[1] = biological target: Melanin-concentrating hormone receptor 1 (Homo sapiens, UniProt Q99705); assay: Fluorescence-based counterscreen for antagonists of the G-protein coupled receptor 7 (GPR7): cell-based high throughput dose response assay to identify antagonists of the melanin-concentrating hormone receptor 1 (MCHR1).; assay type: functional
Fatty acid synthase [2] = biological target: T1, Fatty acid synthase (Homo sapiens, UniProt P49327); assay: FAS thioesterase domain inhibitors, dose response, biochemical, kinetic fluorescence intensity (AID 624326); assay type: functional;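 further: rate of fluorescence rise from hydrolysis of a fluorogenic O-methyl fluorescein ester substrate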
T1 sequence (P49327 whole entry, the tested form may be a part): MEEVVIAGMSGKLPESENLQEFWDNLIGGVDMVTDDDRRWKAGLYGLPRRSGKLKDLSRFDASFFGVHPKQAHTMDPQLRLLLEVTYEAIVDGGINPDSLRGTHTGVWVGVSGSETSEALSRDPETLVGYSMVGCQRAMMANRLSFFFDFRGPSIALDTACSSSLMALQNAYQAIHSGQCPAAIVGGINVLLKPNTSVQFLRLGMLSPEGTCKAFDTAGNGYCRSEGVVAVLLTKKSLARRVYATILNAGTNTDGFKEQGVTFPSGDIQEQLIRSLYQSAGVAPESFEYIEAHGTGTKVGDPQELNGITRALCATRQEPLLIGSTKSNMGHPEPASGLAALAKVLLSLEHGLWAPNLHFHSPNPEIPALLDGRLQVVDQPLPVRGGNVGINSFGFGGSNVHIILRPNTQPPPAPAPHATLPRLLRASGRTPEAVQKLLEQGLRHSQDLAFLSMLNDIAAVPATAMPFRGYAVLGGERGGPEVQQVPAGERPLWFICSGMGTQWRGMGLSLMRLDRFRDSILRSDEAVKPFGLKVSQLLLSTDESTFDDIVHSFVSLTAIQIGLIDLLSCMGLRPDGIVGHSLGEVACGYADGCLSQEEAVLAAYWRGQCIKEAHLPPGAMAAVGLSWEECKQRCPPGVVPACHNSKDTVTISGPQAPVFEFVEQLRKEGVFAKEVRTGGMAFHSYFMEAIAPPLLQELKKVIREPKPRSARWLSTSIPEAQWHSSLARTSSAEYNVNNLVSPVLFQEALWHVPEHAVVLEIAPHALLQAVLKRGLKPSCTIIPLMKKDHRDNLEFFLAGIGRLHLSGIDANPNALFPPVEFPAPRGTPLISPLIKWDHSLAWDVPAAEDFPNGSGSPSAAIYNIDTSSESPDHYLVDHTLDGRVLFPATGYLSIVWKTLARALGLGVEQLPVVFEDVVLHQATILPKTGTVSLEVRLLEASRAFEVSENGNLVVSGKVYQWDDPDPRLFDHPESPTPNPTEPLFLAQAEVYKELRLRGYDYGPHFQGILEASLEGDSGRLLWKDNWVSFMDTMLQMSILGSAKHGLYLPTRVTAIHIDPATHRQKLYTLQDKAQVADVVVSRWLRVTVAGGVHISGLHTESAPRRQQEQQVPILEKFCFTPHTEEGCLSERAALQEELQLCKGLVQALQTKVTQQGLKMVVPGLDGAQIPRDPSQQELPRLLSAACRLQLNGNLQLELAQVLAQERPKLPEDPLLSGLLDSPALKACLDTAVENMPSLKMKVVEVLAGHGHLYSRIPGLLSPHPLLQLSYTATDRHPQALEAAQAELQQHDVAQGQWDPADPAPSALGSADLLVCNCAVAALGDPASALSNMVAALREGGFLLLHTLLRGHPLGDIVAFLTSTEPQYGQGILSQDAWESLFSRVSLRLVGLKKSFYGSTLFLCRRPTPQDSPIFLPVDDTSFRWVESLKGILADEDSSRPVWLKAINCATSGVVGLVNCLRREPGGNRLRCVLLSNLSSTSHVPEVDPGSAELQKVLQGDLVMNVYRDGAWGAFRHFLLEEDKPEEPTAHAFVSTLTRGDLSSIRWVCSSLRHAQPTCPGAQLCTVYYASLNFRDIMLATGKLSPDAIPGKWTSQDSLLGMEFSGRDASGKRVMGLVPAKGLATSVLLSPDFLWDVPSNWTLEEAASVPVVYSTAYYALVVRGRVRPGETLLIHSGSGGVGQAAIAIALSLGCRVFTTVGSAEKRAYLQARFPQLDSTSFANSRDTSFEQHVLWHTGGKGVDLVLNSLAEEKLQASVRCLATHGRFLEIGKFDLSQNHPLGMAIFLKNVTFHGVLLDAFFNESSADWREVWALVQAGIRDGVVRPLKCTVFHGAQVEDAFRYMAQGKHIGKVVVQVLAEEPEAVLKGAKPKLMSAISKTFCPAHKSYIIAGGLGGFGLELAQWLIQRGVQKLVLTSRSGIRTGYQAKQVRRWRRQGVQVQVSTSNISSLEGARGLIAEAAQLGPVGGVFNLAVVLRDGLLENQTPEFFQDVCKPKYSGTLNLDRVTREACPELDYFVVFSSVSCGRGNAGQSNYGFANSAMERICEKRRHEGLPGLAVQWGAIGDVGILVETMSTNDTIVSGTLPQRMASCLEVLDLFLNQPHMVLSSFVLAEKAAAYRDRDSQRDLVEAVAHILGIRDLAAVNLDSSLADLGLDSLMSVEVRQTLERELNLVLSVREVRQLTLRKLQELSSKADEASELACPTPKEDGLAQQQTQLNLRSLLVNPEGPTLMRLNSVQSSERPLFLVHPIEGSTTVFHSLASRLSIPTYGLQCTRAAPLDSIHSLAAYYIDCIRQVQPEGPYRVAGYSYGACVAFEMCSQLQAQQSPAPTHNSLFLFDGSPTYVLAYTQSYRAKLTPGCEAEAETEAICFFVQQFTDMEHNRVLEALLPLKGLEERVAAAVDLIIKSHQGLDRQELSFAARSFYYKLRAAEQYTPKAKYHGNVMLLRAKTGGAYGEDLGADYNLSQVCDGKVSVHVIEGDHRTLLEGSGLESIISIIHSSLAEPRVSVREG

[3] = biological target: T2, Neuropeptides B/W receptor type 1 (Homo sapiens, UniProt P48145); assay: Fluorescence-based dose response cell-based high throughput screening assay to identify antagonists of the G-protein coupled receptor 7 (GPR7). [Related pubchem assays: 1952 (Screening assay (GPR7 antagonists).), 1880 (Summary AID.)]; assay type: functional
T2 sequence (P48145 whole entry): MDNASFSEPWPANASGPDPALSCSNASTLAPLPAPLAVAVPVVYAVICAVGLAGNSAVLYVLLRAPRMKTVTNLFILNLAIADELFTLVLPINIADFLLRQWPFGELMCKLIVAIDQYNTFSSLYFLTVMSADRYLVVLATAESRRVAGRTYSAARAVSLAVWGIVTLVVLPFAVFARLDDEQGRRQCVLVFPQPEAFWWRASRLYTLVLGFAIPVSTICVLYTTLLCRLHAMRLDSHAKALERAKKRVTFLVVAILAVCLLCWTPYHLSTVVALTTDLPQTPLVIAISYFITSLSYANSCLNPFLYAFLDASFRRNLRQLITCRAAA

Fatty acid synthase [4] = biological target: T1, Fatty acid synthase; assay: FAS thioesterase domain inhibitors, dose response, biochemical, endpoint fluorescence intensity, uHTS hits (AID 624327); assay type: functional;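 further: fluorescence from hydrolysis of an O-methyl fluorescein acyl ester substrate by the enzyme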
Mucolipin-3 = biological target: T3, Mucolipin-3 (Homo sapiens, UniProt Q8TDD5); assay: Dose response cell-based high-throughput screening assay for agonists of the transient receptor potential channel ML3 (TRPML3). [Related pubchem assays: 1526, 1424, 1448 ]; assay type: functional
T3 sequence (Q8TDD5 whole entry): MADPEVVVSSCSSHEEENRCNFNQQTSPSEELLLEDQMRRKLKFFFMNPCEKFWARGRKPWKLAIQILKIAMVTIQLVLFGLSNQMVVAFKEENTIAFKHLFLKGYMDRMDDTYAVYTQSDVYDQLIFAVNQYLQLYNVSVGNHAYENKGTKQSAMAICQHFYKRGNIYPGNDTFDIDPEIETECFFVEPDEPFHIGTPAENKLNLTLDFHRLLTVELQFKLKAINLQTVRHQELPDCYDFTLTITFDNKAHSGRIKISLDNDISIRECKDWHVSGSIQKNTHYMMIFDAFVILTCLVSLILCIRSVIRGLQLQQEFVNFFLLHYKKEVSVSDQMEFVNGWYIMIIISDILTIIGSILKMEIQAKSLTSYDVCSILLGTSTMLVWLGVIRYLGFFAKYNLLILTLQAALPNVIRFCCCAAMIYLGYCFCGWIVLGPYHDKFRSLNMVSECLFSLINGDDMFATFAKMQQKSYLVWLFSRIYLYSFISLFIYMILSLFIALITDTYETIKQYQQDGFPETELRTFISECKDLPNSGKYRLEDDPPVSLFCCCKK

Ion channel NompC = Ion channel NompC (Danio rerio, UniProt Q7T1G6); assay: Fluorescence counterscreen assay for TRPML3 agonists: dose response cell-based high-throughput screening assay to identify agonists of the transient receptor potential channel N1 (TRPN1). [Related pubchem assays: 1526, 1424, 1448 ]; assay type: functional
[5] = inhibitors of intracellular T. cruzi replication, confirmation, NIH3T3 host cells, beta-gal luminescence (AID 2044); assay type: functional, cell-based;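 further: intracellular parasites grown in NIH/3T3 mouse fibroblasts as host cells; luminescent beta-galactosidase reporter signal from transgenic T. cruzi replicating inside host cells; inhibitors lower the luminescence signal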
[6] = cytotoxicity toward NIH3T3 fibroblasts, dose response, counter-screen, cell-based, ATP luminescence, mouse fibroblasts (AID 2010); assay type: functional;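 further: cells exposed to compound for about 90 hours before reading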
Bcl-2-like protein 10 = biological target: T4, Bcl-2-like protein 10 (Homo sapiens, UniProt Q9HD36); assay: displacers of TR3 peptide from Bcl-B, primary screen, selectivity assay for Bfl-1 inhibitor project, biochemical, fluorescence polarization, FITC-TR3 peptide (AID 748);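 further: fluorescence polarization from a fluorescein-labelled TR3 peptide binding purified Bcl-B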
T4 sequence (Q9HD36 whole entry): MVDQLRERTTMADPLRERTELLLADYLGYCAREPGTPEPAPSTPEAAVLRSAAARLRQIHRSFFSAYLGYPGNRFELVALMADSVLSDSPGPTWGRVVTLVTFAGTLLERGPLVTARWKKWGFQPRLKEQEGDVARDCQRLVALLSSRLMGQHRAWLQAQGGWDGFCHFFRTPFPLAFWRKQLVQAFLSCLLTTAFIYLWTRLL

[7] = biological target: T5, Serine/threonine-protein phosphatase (Homo sapiens, UniProt Q9BPW0); assay: PP5 phosphatase inhibitors, dose response, biochemical, fluorescence (AID 2395)
T5 sequence (Q9BPW0 whole entry): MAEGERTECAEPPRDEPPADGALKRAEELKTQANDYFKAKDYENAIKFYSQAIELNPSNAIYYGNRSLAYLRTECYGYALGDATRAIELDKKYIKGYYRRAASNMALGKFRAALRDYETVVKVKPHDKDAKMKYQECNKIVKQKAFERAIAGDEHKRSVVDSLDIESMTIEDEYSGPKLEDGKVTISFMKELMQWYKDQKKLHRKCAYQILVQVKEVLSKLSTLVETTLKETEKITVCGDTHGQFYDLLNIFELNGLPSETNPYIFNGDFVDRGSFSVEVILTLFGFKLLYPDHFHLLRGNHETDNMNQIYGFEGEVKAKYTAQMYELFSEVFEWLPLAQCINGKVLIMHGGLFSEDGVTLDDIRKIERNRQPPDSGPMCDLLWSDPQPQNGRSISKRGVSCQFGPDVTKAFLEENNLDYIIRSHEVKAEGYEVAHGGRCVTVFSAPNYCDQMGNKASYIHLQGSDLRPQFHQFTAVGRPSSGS

[8] = biological target: T6, Apoptotic protease-activating factor 1 (Homo sapiens, UniProt O14727); assay type: functional
T6 sequence (O14727 whole entry): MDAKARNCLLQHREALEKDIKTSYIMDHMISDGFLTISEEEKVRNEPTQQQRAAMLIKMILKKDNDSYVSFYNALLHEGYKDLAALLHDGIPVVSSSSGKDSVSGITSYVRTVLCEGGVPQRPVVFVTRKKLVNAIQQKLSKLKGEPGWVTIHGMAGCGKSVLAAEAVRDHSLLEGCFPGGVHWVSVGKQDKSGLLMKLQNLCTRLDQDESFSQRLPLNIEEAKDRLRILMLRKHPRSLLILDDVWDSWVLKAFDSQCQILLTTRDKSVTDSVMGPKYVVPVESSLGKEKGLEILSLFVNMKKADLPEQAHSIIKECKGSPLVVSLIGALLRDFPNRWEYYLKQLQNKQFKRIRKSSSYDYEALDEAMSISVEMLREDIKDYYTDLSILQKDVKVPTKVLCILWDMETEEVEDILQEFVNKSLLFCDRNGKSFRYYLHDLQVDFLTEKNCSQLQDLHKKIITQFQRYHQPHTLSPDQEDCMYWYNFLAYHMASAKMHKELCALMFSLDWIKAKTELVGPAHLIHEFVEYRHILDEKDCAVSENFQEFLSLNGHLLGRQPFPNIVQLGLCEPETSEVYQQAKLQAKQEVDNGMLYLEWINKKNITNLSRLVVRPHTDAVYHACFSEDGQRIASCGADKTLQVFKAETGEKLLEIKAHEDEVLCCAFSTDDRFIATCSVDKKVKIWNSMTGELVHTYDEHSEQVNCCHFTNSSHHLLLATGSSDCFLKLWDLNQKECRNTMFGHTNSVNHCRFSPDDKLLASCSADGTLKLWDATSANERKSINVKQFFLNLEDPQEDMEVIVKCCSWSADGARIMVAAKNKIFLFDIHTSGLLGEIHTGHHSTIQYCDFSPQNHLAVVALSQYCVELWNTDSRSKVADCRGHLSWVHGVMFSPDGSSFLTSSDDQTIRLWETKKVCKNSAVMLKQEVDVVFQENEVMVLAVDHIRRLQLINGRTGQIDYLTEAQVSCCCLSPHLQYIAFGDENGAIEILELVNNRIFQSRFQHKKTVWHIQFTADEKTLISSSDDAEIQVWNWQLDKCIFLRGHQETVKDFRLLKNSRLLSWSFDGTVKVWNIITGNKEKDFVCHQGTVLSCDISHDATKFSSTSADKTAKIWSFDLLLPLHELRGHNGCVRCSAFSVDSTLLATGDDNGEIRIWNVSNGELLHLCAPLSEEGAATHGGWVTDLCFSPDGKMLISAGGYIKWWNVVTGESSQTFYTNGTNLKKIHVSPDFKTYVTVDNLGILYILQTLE

Genome polyprotein = Genome polyprotein (dengue virus type 2, UniProt P29990); assay: Dengue-2 NS5 methyltransferase inhibitors, primary screen, biochemical, confirmation dose response (AID 588689); assay type: functional
[9] = biological target: Serine/threonine-protein phosphatase PP1-alpha catalytic subunit (Homo sapiens, UniProt P62136); assay: PP1 phosphatase inhibitors, dose response, biochemical, fluorescence (AID 2394)
Sequence of Serine/threonine-protein phosphatase PP1-alpha catalytic subunit (P62136 whole entry): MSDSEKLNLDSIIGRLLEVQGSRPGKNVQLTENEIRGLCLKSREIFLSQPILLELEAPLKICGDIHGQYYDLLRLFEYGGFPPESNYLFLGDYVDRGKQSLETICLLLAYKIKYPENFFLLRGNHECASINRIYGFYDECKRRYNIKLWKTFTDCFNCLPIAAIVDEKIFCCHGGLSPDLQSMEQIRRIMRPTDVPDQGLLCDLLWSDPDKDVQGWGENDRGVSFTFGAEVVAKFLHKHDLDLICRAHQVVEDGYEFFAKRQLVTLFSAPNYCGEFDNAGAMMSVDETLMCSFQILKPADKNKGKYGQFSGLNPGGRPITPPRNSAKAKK

Vero = assay: Vero E6 cell cytotoxicity, SAR follow-up, cytotoxicity control for West Nile virus antiviral project, synthesized analogs (AID 2244); assay type: functional; conditions: Chlorocebus sabaeus
X-box-binding protein 1 = X-box-binding protein 1 (Homo sapiens, UniProt P17861); assay type: functional, Cricetulus griseus;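 further: confirmatory dose-response counter-screen serving a CHOP assay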
Sequence of X-box-binding protein 1 (P17861 whole entry): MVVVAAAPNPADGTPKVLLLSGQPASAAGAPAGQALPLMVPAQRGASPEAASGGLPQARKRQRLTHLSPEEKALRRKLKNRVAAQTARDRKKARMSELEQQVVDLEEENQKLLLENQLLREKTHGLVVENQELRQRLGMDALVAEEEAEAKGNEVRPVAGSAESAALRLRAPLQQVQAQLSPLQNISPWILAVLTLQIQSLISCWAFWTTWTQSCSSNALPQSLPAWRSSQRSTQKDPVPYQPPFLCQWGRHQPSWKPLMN

[10] = biological target: Acyl-homoserine lactone acylase PvdQ (Pseudomonas aeruginosa (strain LESB58), UniProt Q9I194); assay: P. aeruginosa PvdQ acylase inhibitors, dose response, biochemical, fluorescence, plate reader and imaging, cherry-picks (AID 493231)
Sequence of Acyl-homoserine lactone acylase PvdQ (Q9I194 24-193 limits assumed): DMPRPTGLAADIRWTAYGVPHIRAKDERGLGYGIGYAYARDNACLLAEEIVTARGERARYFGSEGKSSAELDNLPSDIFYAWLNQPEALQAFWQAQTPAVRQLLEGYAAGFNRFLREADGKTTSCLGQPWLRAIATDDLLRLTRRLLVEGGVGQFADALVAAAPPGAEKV
Sequence of Acyl-homoserine lactone acylase PvdQ (Q9I194 217-762 limits assumed): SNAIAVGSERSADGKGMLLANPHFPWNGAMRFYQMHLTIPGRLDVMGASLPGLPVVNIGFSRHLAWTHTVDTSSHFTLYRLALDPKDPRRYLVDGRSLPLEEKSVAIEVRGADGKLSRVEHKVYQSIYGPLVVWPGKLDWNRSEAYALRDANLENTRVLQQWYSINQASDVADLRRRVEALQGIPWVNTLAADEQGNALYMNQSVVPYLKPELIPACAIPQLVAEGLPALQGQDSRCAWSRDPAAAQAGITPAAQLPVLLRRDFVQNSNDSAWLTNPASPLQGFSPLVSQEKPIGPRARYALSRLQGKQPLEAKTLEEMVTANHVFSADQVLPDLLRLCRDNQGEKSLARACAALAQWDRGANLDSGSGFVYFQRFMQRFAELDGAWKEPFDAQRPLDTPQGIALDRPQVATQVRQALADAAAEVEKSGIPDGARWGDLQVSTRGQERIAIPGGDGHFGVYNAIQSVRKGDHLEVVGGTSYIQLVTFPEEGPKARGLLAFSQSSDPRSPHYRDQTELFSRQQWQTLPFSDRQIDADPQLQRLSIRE

[11] = biological target: T7, Heat shock factor protein 1 (Mus musculus, UniProt P38532); assay: HSF1 potentiators in luciferase reporter cells, confirmation, cell-based, NIH3T3, luminescence, dose retest (AID 435004); assay type: functional;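 further: stress induced by proteasome inhibitor MG132 added 30 min after compound; luciferase reporter driven by HSF1 response element in NIH3T3 cells; actives raise luminescence as potentiators of the MG132 stress response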
T7 sequence (P38532 whole entry): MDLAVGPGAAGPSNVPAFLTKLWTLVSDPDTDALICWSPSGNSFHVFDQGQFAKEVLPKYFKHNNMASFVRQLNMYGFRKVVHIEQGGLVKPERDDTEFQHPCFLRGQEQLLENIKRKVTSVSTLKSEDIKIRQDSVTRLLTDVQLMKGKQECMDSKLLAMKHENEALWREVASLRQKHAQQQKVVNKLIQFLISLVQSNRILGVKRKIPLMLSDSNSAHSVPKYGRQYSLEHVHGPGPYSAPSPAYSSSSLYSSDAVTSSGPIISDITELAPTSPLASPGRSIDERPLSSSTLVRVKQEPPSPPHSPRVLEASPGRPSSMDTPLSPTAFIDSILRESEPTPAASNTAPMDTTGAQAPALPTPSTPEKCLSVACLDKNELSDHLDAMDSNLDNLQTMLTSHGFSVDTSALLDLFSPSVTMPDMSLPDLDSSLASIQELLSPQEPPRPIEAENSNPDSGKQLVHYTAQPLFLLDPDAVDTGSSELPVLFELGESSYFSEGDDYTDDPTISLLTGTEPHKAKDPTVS

Estrogen receptor beta [12] = biological target: T8, Estrogen receptor beta (Homo sapiens, UniProt Q92731);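 further: recombinant ER-beta bound to coactivator SRC1 peptide in presence of estradiol agonist; inhibitors block coactivator peptide binding and lower the FRET signal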
T8 sequence (Q92731 whole entry): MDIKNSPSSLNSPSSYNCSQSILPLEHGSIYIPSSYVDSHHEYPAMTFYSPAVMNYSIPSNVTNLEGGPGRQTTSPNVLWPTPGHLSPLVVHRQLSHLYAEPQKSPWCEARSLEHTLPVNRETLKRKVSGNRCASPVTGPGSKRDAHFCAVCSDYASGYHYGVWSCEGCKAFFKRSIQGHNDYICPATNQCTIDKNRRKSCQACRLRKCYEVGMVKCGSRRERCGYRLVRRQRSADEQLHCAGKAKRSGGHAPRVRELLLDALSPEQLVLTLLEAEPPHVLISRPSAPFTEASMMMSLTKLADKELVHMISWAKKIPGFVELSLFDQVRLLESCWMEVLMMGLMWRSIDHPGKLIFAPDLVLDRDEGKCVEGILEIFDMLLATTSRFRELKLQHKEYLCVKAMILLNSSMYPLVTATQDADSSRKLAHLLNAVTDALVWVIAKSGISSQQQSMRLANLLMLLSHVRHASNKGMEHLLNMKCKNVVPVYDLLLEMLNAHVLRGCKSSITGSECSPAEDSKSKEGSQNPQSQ

Estrogen receptor beta [13] = biological target: T8, Estrogen receptor beta; assay: ERβ–SRC-3 coactivator interaction inhibitors, confirmation, orthogonal assay, biochemical, ELISA, streptavidin-HRP readout (AID 1060)

Sequence of Melanin-concentrating hormone receptor 1 (Q99705 whole entry, the tested form may be a part): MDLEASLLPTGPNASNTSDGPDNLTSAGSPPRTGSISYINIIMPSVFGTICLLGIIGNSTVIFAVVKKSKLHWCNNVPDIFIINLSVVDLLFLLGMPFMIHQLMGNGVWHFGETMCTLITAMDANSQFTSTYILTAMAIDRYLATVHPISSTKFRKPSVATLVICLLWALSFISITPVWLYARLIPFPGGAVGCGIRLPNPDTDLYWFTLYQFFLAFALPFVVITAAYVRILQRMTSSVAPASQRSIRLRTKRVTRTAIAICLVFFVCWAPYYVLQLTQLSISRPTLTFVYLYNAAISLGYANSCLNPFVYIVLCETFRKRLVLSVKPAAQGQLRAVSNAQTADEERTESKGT

With `O=C(COc1ccc([N+](=O)[O-])cc1)NCCC1=CCCCC1` the IC50 [1] was 22.2 µM (not active), the IC50 (Fatty acid synthase [2]) was 10.1 µM (active) and the IC50 [3] was > 14.6 µM (not active). For the same molecule, the IC50 (Fatty acid synthase [4]) was 8.16 µM (active).

In the case of `O=C1CCCN1CC#CCN1CCCC1` [OXOTREMORINE], the EC50 (Mucolipin-3) is reported as > 29.9 µM (not active) and the EC50 (Ion channel NompC) is reported as > 29.9 µM (not active).

In the case of `Cc1ccc(SCCOCCN2CCc3ccccc3C2)cc1`, the EC50 [5] is reported as < 0.1 µM (active), the EC50 (cells) is reported as 0.037 µM (active) and the EC50 [6] is reported as > 60 µM (not active).

For `Nc1cc2nsnc2cc1Br`, the IC50 (Bcl-2-like protein 10) was 13.3 µM (active), the IC50 [7] was > 2.48 µM (active) and the IC50 [8] was 3.21 µM (active). The IC50 (Genome polyprotein) was 48.7 µM (active) and the IC50 [9] was > 67 µM (not active).

For `COc1ccc(-c2csc(N(CCCN(C)C)C(=O)c3ccccc3F)n2)cc1`, the CC50 (Vero) was > 80 µM (active).

In the case of `O=C(CNC1CCN(Cc2ccccc2)CC1)Nc1ccc(S(=O)(=O)N2CCCCC2)cc1`, the EC50 [5] is reported as < 0.1 µM (active), the EC50 (cells) is reported as 0.019 µM (active) and the EC50 [6] is reported as > 30 µM (not active).

With `CC(C)C(=O)N1CCC(CNC=C2C(=O)N(C3CCCCC3)C(=O)N(C3CCCCC3)C2=O)CC1` the “Absolute IC50 (XBP1)” value (X-box-binding protein 1) was 10 µM.

For `Cc1ccc(OCC(=O)N/N=C/c2c[nH]nc2-c2ccc(Cl)c(Cl)c2)cc1`, the “Absolute IC50 (XBP1)” value (X-box-binding protein 1) was 10 µM.

With `COC(=O)c1noc(-c2ccc(OC)cc2)n1` the AC50 [10] was > 100 µM (inactive).

With `Clc1ccc(-n2c(SC/C=C/c3ccccc3)nnc2-c2cccnc2)cc1` the EC50 [11] was 46.1 µM (active), the IC50 [1] was 8.43 µM (active) and the IC50 [3] was 16.9 µM (not active).

With `O=C(NC1CCCCCCC1)c1cc([N+](=O)[O-])ccc1Cl` the IC50 (Fatty acid synthase [2]) was 7.35 µM (active), the IC50 (Fatty acid synthase [4]) was 9.4 µM (active) and the AC50 [10] was 40.8 µM (active).

With `Oc1c2c(nc3ccccc13)C(=C1CCCC1)CC2` the IC50 (Estrogen receptor beta [12]) was 1.69 µM (active) and the IC50 (Estrogen receptor beta [13]) was > 109 µM (not active).

With `CCOC(=O)c1cnn(-c2nc(SC)nc3sc4c(c23)CCC4)c1N` the IC50 (Estrogen receptor beta [12]) was > 50 µM (not active) and the IC50 (Estrogen receptor beta [13]) was 0.069 µM (not active).

— ChEMBL document CHEMBL1201862, “PubChem BioAssay data set” (2004)
